Here are results for 35 molecules from PMC5681660, “Reduced hepatitis B and D viral entry using clinically applied drugs as novel inhibitors of the bile acid transporter NTCP” (Scientific Reports, 2017).

Counter-ions that a name gives are not always drawn. Like-named read-outs stand apart in the source and are kept apart here. Some results are limits rather than exact numbers.

In this test the target is T1, human NTCP (Homo sapiens, UniProt Q14973).
T1 sequence (Q14973 1-349): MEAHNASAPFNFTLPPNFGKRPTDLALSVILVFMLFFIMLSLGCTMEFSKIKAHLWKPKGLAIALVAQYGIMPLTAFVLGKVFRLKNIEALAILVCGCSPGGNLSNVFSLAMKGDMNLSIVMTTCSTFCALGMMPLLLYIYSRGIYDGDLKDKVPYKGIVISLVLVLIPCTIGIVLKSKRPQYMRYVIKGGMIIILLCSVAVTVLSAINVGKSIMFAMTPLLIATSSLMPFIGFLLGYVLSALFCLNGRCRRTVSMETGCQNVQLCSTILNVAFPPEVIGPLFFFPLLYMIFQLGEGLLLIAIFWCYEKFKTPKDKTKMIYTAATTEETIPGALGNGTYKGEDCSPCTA
The experiment in a line: Screening taurocholate uptake assay (96-well, [14C]taurocholate, 10 µM drug).

The mark [1] stands for this setting: ranking over the functional and the binding screening assay.
Where [2] appears, read: screening taurocholate uptake, 10 µM drug.
Setting [3] is: combined ranking of functional and binding screening assays.
Setting [4] is: screening taurocholate uptake, 10 µM drug, B-score.

For `CC[C@H](C)[C@H]1O[C@]2(CC[C@@H]1C)C[C@@H]1C[C@@H](C/C=C(\C)[C@@H](O[C@H]3C[C@H](OC)[C@@H](O[C@H]4C[C@H](OC)[C@@H](O)[C@H](C)O4)[C@H](C)O3)[C@@H](C)/C=C/C=C3\CO[C@@H]4[C@H](O)C(C)=C[C@@H](C(=O)O1)[C@]34O)O2` [Ivermectin], under setting [1], the Ranking score was found to be 56.4978. The B-score functional assay under setting [2] is -2.693. For `CN(C)CCN1C(=O)c2ccccc2N(C)c2ccccc21.Cl` [Dibenzepine hydrochloride], under setting [3], the Ranking score came to 501.825. The B-score functional assay under setting [2] is on record as -0.713. As for `Nc1cc(N2CCCCC2)nc(N)[n+]1[O-]` [Minoxidil], the Ranking score under setting [1] turned out to be 87.241. Moreover, the B-score functional assay under setting [2] was -3.894. Regarding `CO/N=C(\C(=O)N[C@@H]1C(=O)N2C(C(=O)OC(C)OC(C)=O)=C(COC(N)=O)CS[C@H]12)c1ccco1` (some centres unmarked) [Cefuroxime axetil], the Ranking score under setting [3] came out at 621.898. Further, the B-score functional assay under setting [2] is recorded as -0.317. Under setting [1], `CC(C)(O)c1ccccc1CC[C@@H](SCC1(CC(=O)O)CC1)c1cccc(/C=C/c2ccc3ccc(Cl)cc3n2)c1` [Montelukast] showed a Ranking score of 55.3173. Further, the B-score functional assay under setting [2] is -3.762. Take `COc1cc2c(c(OC)c1OC)-c1ccc(OC)c(=O)cc1[C@@H](NC(C)=O)CC2` [Colchicine]: the B-score functional assay is on record as -0.631. `CC[C@H](C)[C@H]1O[C@]2(C=C[C@@H]1C)C[C@@H]1C[C@@H](C/C=C(\C)[C@@H](O[C@H]3C[C@H](OC)[C@@H](O[C@H]4C[C@H](OC)[C@@H](O)[C@H](C)O4)[C@H](C)O3)[C@@H](C)/C=C/C=C3\CO[C@@H]4[C@H](O)C(C)=C[C@@H](C(=O)O1)[C@]34O)O2` [Avermectin B1a] gave a Ranking score under setting [1] of 51.7494. In addition, under setting [2], the B-score functional assay is given as -1.314.

Under setting [1], `CN(C)CCn1nnnc1SCC1=C(C(=O)O)N2C(=O)[C@@H](NC(=O)Cc3csc(N)n3)[C@H]2SC1` [Cefotiam hydrochloride] showed a Ranking score of 197.995. The molecule further returned a B-score functional assay under setting [2] of 1.511. `C[C@H](CCC(=O)O)[C@H]1CC[C@H]2[C@@H]3[C@H](O)C[C@@H]4C[C@H](O)CC[C@]4(C)[C@H]3CC[C@]12C` [chenodeoxycholic acid]: for the setting “1280 drugs at 10 µM, TC uptake and Myrcludex B binding screens combined”, the “position among the hits of the screen (combined ranking of both screening assays)” value is given as ≤ 150. With `Nc1nc(Cl)nc2c1ncn2[C@H]1C[C@H](O)[C@@H](CO)O1` [Cladribine], the Ranking score under setting [1] was 277.042. For the same molecule, under setting [2], the B-score functional assay is reported as -0.011. In the same order, the values of `O=c1c2ccccc2[se]n1-c1ccccc1` [Ebselen] are 12.2474 and -4.734. As for `CC(=O)OCC(=O)[C@@]1(O)CC[C@H]2[C@@H]3CCC4=CC(=O)C=C[C@]4(C)[C@@]3(F)[C@@H](O)C[C@@]21C` [Isoflupredone acetate], the Ranking score under setting [3] came out at 486.111. Also, the B-score functional assay under setting [2] came to 1.125. The like results for `Clc1ccc2c(c1)C(N1CCNCC1)=Nc1ccccc1O2` [Amoxapine] were, in that order, 604.055 and 0.589. `O=C([O-])c1ccccc1-c1c2cc(Br)c(=O)cc-2oc2[c]([Hg+])c([O-])c(Br)cc12.[Na+].[Na+].[OH-]` [Merbromin] had a Ranking score under setting [1] of 82.365. In addition, under setting [2], the B-score functional assay is reported as -0.374. For the molecule `COc1ccccc1OCC(O)CN1CCN(CC(=O)Nc2c(C)cccc2C)CC1` (centres unmarked) [Ranolazine], the Ranking score under setting [3] is given as 603.017. In addition, the B-score functional assay under setting [2] is 1.748. As to `CCCc1nc(C)c2c(=O)[nH]c(-c3cc(S(=O)(=O)N4CCN(CC)CC4)ccc3OCC)nn12` [Vardenafil], the Ranking score under setting [3] was determined as 546.31. Also, the B-score functional assay under setting [2] is given as -0.039. For “R(-) Apomorphine hydrochloride hemihydrate”, the Ranking score under setting [3] is recorded as 1173.62. The B-score functional assay under setting [4] was found to be 2.876. Take `CCCCOc1ccc(C(=O)CCN2CCCCC2)cc1` [Dyclonine hydrochloride]: under setting [3], the Ranking score was determined as 591.312. Besides, the B-score functional assay under setting [2] is reported as -0.08. On to `CC(N)CCCC(C)(C)O` (centres unmarked) [Heptaminol hydrochloride], for which the Ranking score under setting [3] was found to be 1189.85. In addition, the B-score functional assay under setting [4] was determined as 2.111. The like results for `O=C(NCCO[N+](=O)[O-])c1cccnc1` [Nicorandil] were, in that order, 1149.4 and 0.976. Turning to `CC1(C)S[C@@H]2[C@H](NC(=O)[C@H](N)c3ccc(O)cc3)C(=O)N2[C@H]1C(=O)O` [Amoxicillin], the Ranking score under setting [1] is 277.274. Besides, the B-score functional assay under setting [2] is given as -0.114.

In the case of `OCCN1CCN(CCCN2c3ccccc3Sc3ccc(C(F)(F)F)cc32)CC1` [Fluphenazine dihydrochloride], the Ranking score under setting [1] amounted to 99.0152. Under setting [2], the B-score functional assay is listed as -4.102. In the same order, the values of `Br.C[N+]1([O-])[C@@H]2CC(OC(=O)[C@H](CO)c3ccccc3)C[C@H]1[C@@H]1O[C@@H]12` (some centres unmarked) [Scopolamin-N-oxide hydrobromide] are 208.216 and -2.352. The like results for `Cc1cc(=O)n(-c2ccccc2)n1C` [Antipyrine] were, in that order, 172.864 and -1.958. In the same order, the values of `Nc1nc2[nH]cc(CCc3ccc(C(=O)N[C@@H](CCC(=O)O)C(=O)O)cc3)c2c(=O)[nH]1` [Pemetrexed disodium] are 234.359 and -1.364. In the case of `CC(C(=O)O)c1ccc(C(=O)c2cccs2)cc1` (centres unmarked) [Suprofen], the Ranking score under setting [3] is on record as 554.797. Also, the B-score functional assay under setting [2] was -0.917.

Take `O=C(O)c1cc(-c2ccc(F)cc2F)ccc1O` [Diflunisal]: under setting [1], the Ranking score amounted to 134.198. The B-score functional assay under setting [2] was -4.496.

Turning to `CCCCC[C@H](O)/C=C/[C@@H]1[C@@H](C/C=C\CCCC(=O)O)[C@@H](O)C[C@H]1O` [Dinoprost trometamol], the Ranking score under setting [3] is 615.067. Moreover, the B-score functional assay under setting [2] is recorded as 0.508.

For `NC(=O)OCC(COC(N)=O)c1ccccc1` [Felbamate], the Ranking score under setting [3] worked out at 558.78. This molecule displayed a B-score functional assay under setting [2] of 0.213.

Take `COc1ccc(C(CN(C)C)C2(O)CCCCC2)cc1` (centres unmarked) [Venlafaxine]: for the setting “combined ranking from functional and binding screening assays”, the Ranking score came to 459.852. Besides, the B-score functional assay (screen, 10 µM drug, taurocholate uptake) is listed as -0.102. In turn, `CCCCCN(CCCCC)C(=O)C(CCC(=O)[O-])NC(=O)c1ccc(Cl)c(Cl)c1.[Na+]` (centres unmarked) [Lorglumide sodium salt] showed a Ranking score under setting [1] of 164.012. Under setting [2], the B-score functional assay was -3.59.

In the case of `CC(=O)c1ccc2c(c1)N(CCCN1CCC(CCO)CC1)c1ccccc1S2` [Piperacetazine], the Ranking score under setting [3] worked out at 531.5. Besides, under setting [2], the B-score functional assay was -0.935. Molecule `CNC(=O)Oc1ccc2c(c1)[C@]1(C)CCN(C)[C@@H]1N2C` [Eserine hemisulfate salt] displayed a Ranking score under setting [1] of 269.255. In addition, the B-score functional assay under setting [2] is reported as -0.074. For `CN(C(=O)CN(CCO)CC(=O)N(C)C(C)(C)Cc1ccccc1)C(C)(C)Cc1ccccc1` [Oxethazaine], under setting [3], the Ranking score was determined as 642.638. The same molecule registered a B-score functional assay under setting [2] of 0.282.

The molecule `CC(C)CC(N(C)C)C1(c2ccc(Cl)cc2)CCC1.Cl` (centres unmarked) [Sibutramine HCl] had a Ranking score under setting [1] of 211.232. Moreover, the B-score functional assay under setting [2] is recorded as -0.386.
